Legend:
Type in all cases: in vivo
[1] = tested on: barnyardgrass (Echinochloa crus-galli); assay: Test A preemergence soil spray, visual injury rating 0-100; details: 10 days
Excerpt: (§1) Seeds of plant species selected from barnyardgrass (Echinochloa crus-galli), blackgrass (Alopecurus myosuroides), corn (Zea mays), foxtail, giant (giant foxtail, Setaria faberi), green foxtail (Setaria viridis), goosegrass (Eleusine indica), kochia (Bassia scoparia), oat, wild (wild oat, Avena fatua), palmer (palmer amaranth, palmer pigweed, Amaranthus palmeri), ragweed (common ragweed, Ambrosia artemisiifolia), ryegrass, Italian (italian ryegrass, Lolium multiflorum), soybean (Glycine max) and wheat (Triticum aestivum) were planted into a blend of loam soil and sand and treated preemergence with a directed soil spray using test chemicals formulated in a non-phytotoxic solvent mixture which included a surfactant.
(§2) At the same time, plants selected from these crops and weed species and also galium (catchweed bedstraw, Galium aparine) and horseweed (Erigeron canadensis) were planted in pots containing the same blend of loam soil and sand and treated with postemergence applications of test chemicals formulated in the same manner. Plants ranged in height from 2 to 10 cm and were in the one- to two-leaf stage for the postemergence treatment. Treated plants and untreated controls were maintained in a greenhouse for 10 days, after which time all treated plants were compared to untreated controls and visually evaluated for injury. Plant response ratings, summarized in Table A, are based on a 0 to 100 scale where 0 is no effect and 100 is complete control. A dash (-) response means no test result.

[2] = tested on: blackgrass (Alopecurus myosuroides); assay: as above; details: 10 days
Excerpt: as §1, §2

corn (Zea mays) [3] = assay: as above; details: 10 days
Excerpt: as §1, §2

[4] = tested on: green foxtail (Setaria viridis); assay: as above; details: 10 days
Excerpt: as §1, §2

kochia (Bassia scoparia) [5] = assay: as above; details: 10 days
Excerpt: as §1, §2

[6] = tested on: oat, wild (wild oat, Avena fatua); assay: as above; details: 10 days
Excerpt: as §1, §2

[7] = tested on: palmer (palmer amaranth, palmer pigweed, Amaranthus palmeri); assay: as above; details: 10 days
Excerpt: as §1, §2

[8] = tested on: ragweed (common ragweed, Ambrosia artemisiifolia); assay: as above; details: 10 days
Excerpt: as §1, §2

[9] = tested on: ryegrass, Italian (italian ryegrass, Lolium multiflorum); assay: as above; details: 10 days
Excerpt: as §1, §2

soybean (Glycine max) [10] = assay: as above; details: 10 days
Excerpt: as §1, §2

[11] = tested on: wheat (Triticum aestivum); assay: as above; details: 10 days
Excerpt: as §1, §2

[12] = tested on: barnyardgrass (Echinochloa crus-galli); assay: Test A postemergence application, visual injury rating 0-100
Excerpt: as §1, §2

[13] = tested on: blackgrass (Alopecurus myosuroides); assay: as above
Excerpt: as §1, §2

corn (Zea mays) [14] = assay: as above
Excerpt: as §1, §2

[15] = tested on: green foxtail (Setaria viridis); assay: as above
Excerpt: as §1, §2

[16] = tested on: horseweed (Erigeron canadensis); assay: as above
Excerpt: as §1, §2

kochia (Bassia scoparia) [17] = assay: as above
Excerpt: as §1, §2

[18] = tested on: oat, wild (wild oat, Avena fatua); assay: as above
Excerpt: as §1, §2

[19] = tested on: palmer (palmer amaranth, palmer pigweed, Amaranthus palmeri); assay: as above
Excerpt: as §1, §2

[20] = tested on: ragweed (common ragweed, Ambrosia artemisiifolia); assay: as above
Excerpt: as §1, §2

[21] = tested on: ryegrass, Italian (italian ryegrass, Lolium multiflorum); assay: as above
Excerpt: as §1, §2

soybean (Glycine max) [22] = assay: as above
Excerpt: as §1, §2

[23] = tested on: wheat (Triticum aestivum); assay: as above
Excerpt: as §1, §2

[24] = tested on: barnyardgrass (Echinochloa crusgalli); assay: Test B flooded paddy test, visual plant response rating 0-100; details: 250 g ai/ha, Flood, applied to paddy water, evaluated after 13 days
Protocol: (§3) Plant species in the flooded paddy test selected from barnyardgrass (Echinochloa crusgalli), ducksalad (Heteranthera limosa), rice (Oryza sativa), and sedge, umbrella (small-flower umbrella sedge, Cyperus difformis) were grown to the 2-leaf stage for testing. At time of treatment, test pots were flooded to 3 cm above the soil surface, treated by application of test compounds directly to the paddy water, and then maintained at that water depth for the duration of the test. Treated plants and controls were maintained in a greenhouse for 13 days, after which time all species were compared to controls and visually evaluated. […] A dash (-) response means no test result.

[25] = tested on: ducksalad (Heteranthera limosa); assay: as above; details: 250 g ai/ha, Flood, applied to paddy water, evaluated after 13 days
Protocol: as §3

rice (Oryza sativa) = assay: as above; details: 250 g ai/ha, Flood, applied to paddy water, evaluated after 13 days
Protocol: as §3

[26] = tested on: sedge, umbrella (small-flower umbrella sedge, Cyperus difformis); assay: as above; details: 250 g ai/ha, Flood, applied to paddy water, evaluated after 13 days
Protocol: as §3

[27] = 62 g ai/ha, 0 = no effect, 100 = complete control
[28] = 62 g ai/ha, postemergence, 10 days, 0 = no effect, 100 = complete control
[29] = Postemergence, 16 g ai/ha, greenhouse 10 days, 0 no effect, 100 complete control

Compound: CC1(C(=O)NC2CC=C(C(=O)OCC3CC3)C2)CN(c2cc(F)cc(Cl)c2)C(=O)O1 (centres unmarked) [Compound 144]
- Barnyardgrass plant response rating ([1]; 16 g ai/ha, 0 to 100 scale): 0
- Barnyardgrass plant response rating (0-100) [1, 27]: 100
- Blackgrass plant response rating ([2]; 16 g ai/ha, 0 to 100 scale): 0
- Blackgrass plant response rating (0-100) [2, 27]: 0
- Corn plant response rating (corn (Zea mays) [3]; 16 g ai/ha, 0 to 100 scale): 0
- Corn plant response rating (0-100) (corn (Zea mays) [3]; [27]): 50
- Foxtail, Green plant response rating ([4]; 16 g ai/ha, 0 to 100 scale): 0
- Foxtail, Green plant response rating (0-100) [4, 27]: 90
- Kochia plant response rating (kochia (Bassia scoparia) [5]; 16 g ai/ha, 0 to 100 scale): 0
- Kochia plant response rating (0-100) (kochia (Bassia scoparia) [5]; [27]): 40
- Oat, Wild plant response rating ([6]; 16 g ai/ha, 0 to 100 scale): 0
- Oat, Wild plant response rating (0-100) [6, 27]: 20
- Pigweed, Palmer plant response rating ([7]; 16 g ai/ha, 0 to 100 scale): 50
- Pigweed, Palmer plant response rating (0-100) [7, 27]: 80
- Ragweed plant response rating ([8]; 16 g ai/ha, 0 to 100 scale): 0
- Ragweed plant response rating (0-100) [8, 27]: 0
- Ryegrass, Italian plant response rating ([9]; 16 g ai/ha, 0 to 100 scale): 10
- Ryegrass, Italian plant response rating (0-100) [9, 27]: 60
- Soybean plant response rating (soybean (Glycine max) [10]; 16 g ai/ha, 0 to 100 scale): 0
- Soybean plant response rating (0-100) (soybean (Glycine max) [10]; [27]): 10
- Wheat plant response rating ([11]; 16 g ai/ha, 0 to 100 scale): 0
- Wheat plant response rating (0-100) [11, 27]: 70
- Barnyardgrass plant response rating (0-100) [12, 28]: 100
- Barnyardgrass plant response rating (0 to 100 scale) [12, 29]: 90
- Blackgrass plant response rating (0-100) [13, 28]: 100
- Blackgrass plant response rating (0 to 100 scale) [13, 29]: 70
- Corn plant response rating (0-100) (corn (Zea mays) [14]; [28]): 100
- Corn plant response rating (0 to 100 scale) (corn (Zea mays) [14]; [29]): 100
- Foxtail, Green plant response rating (0-100) [15, 28]: 90
- Foxtail, Green plant response rating (0 to 100 scale) [15, 29]: 90
- Horseweed plant response rating (0-100) [16, 28]: 80
- Horseweed plant response rating (0 to 100 scale) [16, 29]: 50
- Kochia plant response rating (0-100) (kochia (Bassia scoparia) [17]; [28]): 80
- Kochia plant response rating (0 to 100 scale) (kochia (Bassia scoparia) [17]; [29]): 80
- Oat, Wild plant response rating (0-100) [18, 28]: 40
- Oat, Wild plant response rating (0 to 100 scale) [18, 29]: 20
- Pigweed, Palmer plant response rating (0-100) [19, 28]: 90
- Pigweed, Palmer plant response rating (0 to 100 scale) [19, 29]: 70
- Ragweed plant response rating (0-100) [20, 28]: 50
- Ragweed plant response rating (0 to 100 scale) [20, 29]: 20
- Ryegrass, Italian plant response rating (0-100) [21, 28]: 90
- Ryegrass, Italian plant response rating (0 to 100 scale) [21, 29]: 60
- Soybean plant response rating (0-100) (soybean (Glycine max) [22]; [28]): 80
- Soybean plant response rating (0 to 100 scale) (soybean (Glycine max) [22]; [29]): 80
- Wheat plant response rating (0-100) [23, 28]: 90
- Wheat plant response rating (0 to 100 scale) [23, 29]: 60
- Plant response rating, Barnyardgrass (0 to 100 scale, 0 is no effect and 100 is complete control) [24]: 95
- Plant response rating, Ducksalad (0 to 100 scale, 0 is no effect and 100 is complete control) [25]: 80
- Plant response rating, Rice (0 to 100 scale, 0 is no effect and 100 is complete control) (rice (Oryza sativa)): 50
- Plant response rating, Sedge, Umbrella (0 to 100 scale, 0 is no effect and 100 is complete control) [26]: 100

— patent publication US20260285850A1, “SUBSTITUTED OXAZOLIDINONES AND IMIDAZOLINONES AS HERBICIDES” (FMC CORPORATION, priority 2023, published 2026)
